Assay [1] concerns the target T1, human TLR7 (Homo sapiens, UniProt Q9NYK1).
T1 construct: host or cells: HEK-Blue cells
T1 sequence (Q9NYK1 27-1049): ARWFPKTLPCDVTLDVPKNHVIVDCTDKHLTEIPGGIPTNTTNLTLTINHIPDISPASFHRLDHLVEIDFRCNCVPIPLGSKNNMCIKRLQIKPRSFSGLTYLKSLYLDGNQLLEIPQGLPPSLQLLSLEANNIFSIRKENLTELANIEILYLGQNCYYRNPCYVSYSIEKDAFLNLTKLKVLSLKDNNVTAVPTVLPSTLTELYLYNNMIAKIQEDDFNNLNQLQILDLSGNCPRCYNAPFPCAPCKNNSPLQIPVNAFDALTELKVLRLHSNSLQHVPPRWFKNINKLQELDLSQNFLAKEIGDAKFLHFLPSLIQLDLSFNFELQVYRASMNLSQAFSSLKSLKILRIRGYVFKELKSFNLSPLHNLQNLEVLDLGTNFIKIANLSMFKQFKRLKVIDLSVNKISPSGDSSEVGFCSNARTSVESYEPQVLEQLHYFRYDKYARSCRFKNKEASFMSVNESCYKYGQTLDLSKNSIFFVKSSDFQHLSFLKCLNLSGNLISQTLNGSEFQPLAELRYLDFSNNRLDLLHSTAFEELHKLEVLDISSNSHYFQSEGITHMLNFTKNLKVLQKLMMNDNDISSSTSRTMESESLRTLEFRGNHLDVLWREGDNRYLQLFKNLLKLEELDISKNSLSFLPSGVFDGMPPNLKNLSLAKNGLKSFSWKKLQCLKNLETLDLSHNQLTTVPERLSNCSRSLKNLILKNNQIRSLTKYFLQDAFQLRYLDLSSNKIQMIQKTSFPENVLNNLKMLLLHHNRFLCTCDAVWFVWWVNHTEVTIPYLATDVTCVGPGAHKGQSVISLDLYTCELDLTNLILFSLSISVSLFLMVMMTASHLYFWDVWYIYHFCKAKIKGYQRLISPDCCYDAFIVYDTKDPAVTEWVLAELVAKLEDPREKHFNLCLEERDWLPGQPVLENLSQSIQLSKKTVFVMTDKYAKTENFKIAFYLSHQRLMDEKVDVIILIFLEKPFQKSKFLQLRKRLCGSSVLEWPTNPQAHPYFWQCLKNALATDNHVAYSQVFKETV
In words: TLR7 inhibition reporter assay (HEK-Blue cells, SEAP reporter, gardiquimod stimulation). The format is cell-based. The note with it: HEK-Blue cells overexpressing human TLR7, gardiquimod 7.5 μM. The gist of the method:
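Dose-response testing from 0.05 nM to 50 μM final was done on reporter cells for 22 hours at 37° C. Secreted SEAP was then detected, and inhibition was calculated as percent reduction of the agonist-plus-DMSO signal compared with wells given a known inhibitor.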

Assay [2] addresses T2, human TLR9 (Homo sapiens, UniProt Q9NR96).
T2 construct: host or cells: HEK-Blue cells
T2 sequence (Q9NR96 26-1032): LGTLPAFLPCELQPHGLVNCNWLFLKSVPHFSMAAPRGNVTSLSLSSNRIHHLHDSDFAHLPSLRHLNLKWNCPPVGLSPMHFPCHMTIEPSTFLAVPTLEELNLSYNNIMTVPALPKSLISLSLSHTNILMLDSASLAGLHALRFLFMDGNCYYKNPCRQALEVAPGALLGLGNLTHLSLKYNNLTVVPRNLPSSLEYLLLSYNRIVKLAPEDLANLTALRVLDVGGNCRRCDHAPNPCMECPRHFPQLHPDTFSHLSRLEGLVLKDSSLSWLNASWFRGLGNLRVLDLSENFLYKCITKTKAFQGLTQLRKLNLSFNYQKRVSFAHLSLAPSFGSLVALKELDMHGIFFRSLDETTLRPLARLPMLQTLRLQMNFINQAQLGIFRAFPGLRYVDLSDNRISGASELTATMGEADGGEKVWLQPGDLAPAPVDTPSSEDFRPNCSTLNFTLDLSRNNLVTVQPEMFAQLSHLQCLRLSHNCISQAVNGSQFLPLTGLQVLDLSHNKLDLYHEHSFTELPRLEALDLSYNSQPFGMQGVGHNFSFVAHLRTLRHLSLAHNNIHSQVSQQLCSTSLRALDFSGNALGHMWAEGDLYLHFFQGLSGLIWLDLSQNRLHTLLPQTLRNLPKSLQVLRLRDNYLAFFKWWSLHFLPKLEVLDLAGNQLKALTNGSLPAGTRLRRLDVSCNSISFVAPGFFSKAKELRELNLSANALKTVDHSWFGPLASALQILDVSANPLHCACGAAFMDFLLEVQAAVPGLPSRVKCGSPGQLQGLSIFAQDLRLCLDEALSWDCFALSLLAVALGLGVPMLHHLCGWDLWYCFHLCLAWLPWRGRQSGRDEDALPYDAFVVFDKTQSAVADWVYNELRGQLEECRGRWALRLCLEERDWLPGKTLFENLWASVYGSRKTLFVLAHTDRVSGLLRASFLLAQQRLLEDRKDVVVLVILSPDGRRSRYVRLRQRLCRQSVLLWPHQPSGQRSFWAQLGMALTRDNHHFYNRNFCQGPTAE
In words: TLR9 inhibition reporter assay (HEK-Blue cells, SEAP reporter, ODN2006 stimulation). In kind it is cell-based. The note with it: HEK-Blue cells overexpressing human TLR9, ODN2006 5 nM. The gist of the method:
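Screening used HEK-Blue cells overexpressing one human TLR (7, 8 or 9) and an IFN-β minimal promoter–NF-κB/AP-1 SEAP construct. Stimulation lasted 22 h at 37 °C with receptor-specific agonist: gardiquimod, R848 or ODN2006 at 7.5 μM, 15.9 μM and 5 nM.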
Background: A reporter such as luciferase makes a cellular process visible.

Broadly, the IC50 is the concentration that gives 50% inhibition. Lower therefore signals greater potency in that assay. Regarding `COc1ccc(-c2[nH]c3ccc(C4CCN(C(=O)CN5CCC(CO)CC5)CC4)cc3c2C(C)C)cc1OC` [Example 243, 1-(4-(2-(3,4-dimethoxyphenyl)-3-isopropyl-1H-indol-5-yl)piperidin-1-yl)-2-(4-(hydroxymethyl)piperidin-1-yl)ethan-1-one], the IC50 was determined as 55 nM in assay [1] and 1510 nM in assay [2].
Taken in the same sequence, the figures for `COc1ccc(-c2[nH]c3ccc(C4CCN(C(=O)CO)CC4)cc3c2C(C)C)cc1OC` [Example 313, 1-(4-(2-(3,4-dimethoxyphenyl)-3-isopropyl-1H-indol-5-yl)piperidin-1-yl)-2-hydroxyethanone] were 73 nM and 48300 nM.
Taken in the same sequence, the figures for `COc1ccc(-c2[nH]c3ccc(C4CCN(C(=O)CN5CCC[C@@H](C(=O)N6CCC(CCO)CC6)C5)CC4)cc3c2C(C)C)cc1OC` [Example 306, (R)-1-(4-(2-(3,4-dimethoxyphenyl)-3-isopropyl-1H-indol-5-yl)piperidin-1-yl)-2-(3-(4-(2-hydroxyethyl)piperidine-1-carbonyl)piperidin-1-yl)ethan-1-one] were 153 nM and 2680 nM.
For `COc1ccc(-c2[nH]c3ccc(C4CCN(C(=O)C[C@H](C)N)CC4)cc3c2C(C)C)cc1OC` [Example 253, (S)-3-amino-1-(4-(2-(3,4-dimethoxyphenyl)-3-isopropyl-1H-indol-5-yl)piperidin-1-yl)butan-1-one], in that order: 10 nM and 445 nM.
Turning to `COc1ccc(-c2[nH]c3ccc(C4CCN(C(=O)CN5CCC[C@H](C(=O)N6CCN(C(C)C)CC6)C5)CC4)cc3c2C(C)C)cc1OC` [Example 286, (S)-1-(4-(2-(3,4-dimethoxyphenyl)-3-isopropyl-1H-indol-5-yl)piperidin-1-yl)-2-(3-(4-isopropylpiperazine-1-carbonyl)piperidin-1-yl)ethan-1-one], the half-inhibitory concentration (IC50) amounted to 5 nM in assay [1] and 603 nM in assay [2].
For `COc1ccc(-c2[nH]c3ccc(C4CCN(C(=O)CN[C@H]5CC[C@H](N)CC5)CC4)cc3c2C(C)C)cc1OC` [Example 232, 2-(((1r,4r)-4-aminocyclohexyl)amino)-1-(4-(2-(3,4-dimethoxyphenyl)-3-isopropyl-1H-indol-5-yl)piperidin-1-yl)ethan-1-one], in that order: 120 nM and 307 nM.
For `COc1ccc(-c2[nH]c3ccc(C4CCN(C(=O)CN[C@@H](CO)CC(C)C)CC4)cc3c2C(C)C)cc1OC` [Example 234, (R)-1-(4-(2-(3,4-dimethoxyphenyl)-3-isopropyl-1H-indol-5-yl)piperidin-1-yl)-2-((1-hydroxy-4-methylpentan-2-yl)amino) ethan-1-one], in that order: 172 nM and 1880 nM.
On to `COc1ccc(-c2[nH]c3ccc(C4CCN(C(=O)CN5CCC[C@H](C(=O)N6CC[C@H](O)C6)C5)CC4)cc3c2C(C)C)cc1OC` [Example 301, 1-(4-(2-(3,4-dimethoxyphenyl)-3-isopropyl-1H-indol-5-yl)piperidin-1-yl)-2-((S)-3-((S)-3-hydroxypyrrolidine-1-carbonyl)piperidin-1-yl)ethan-1-one], for which the IC50 is 66 nM in assay [1] and 3120 nM in assay [2].
Taken in the same sequence, the figures for `COc1ccc(-c2[nH]c3ccc(C4CCN(C(=O)CN5CCC[C@H](C(=O)N6CC7CNCC7C6)C5)CC4)cc3c2C(C)C)cc1OC` (some centres unmarked) [Example 299, 1-(4-(2-(3,4-dimethoxyphenyl)-3-isopropyl-1H-indol-5-yl)piperidin-1-yl)-2-((3 S)-3-(octahydropyrrolo[3,4-c]pyrrole-2-carbonyl)piperidin-1-yl)ethan-1-one] were 204 nM and 6990 nM.
`COc1ccc(-c2[nH]c3ccc(C4CCN(C(=O)CN5CCC[C@@H](C(=O)N(C)C(C)C)C5)CC4)cc3c2C(C)C)cc1OC` [Example 304, (R)-1-(2-(4-(2-(3,4-dimethoxyphenyl)-3-isopropyl-1H-indol-5-yl)piperidin-1-yl)-2-oxoethyl)-N-isopropyl-N-methylpiperidine-3-carboxamide]: the IC50 was 64 nM in assay [1] and 2750 nM in assay [2].
Taken in the same sequence, the figures for `COc1ccc(-c2[nH]c3ccc(C4CCN(C(=O)CN5CCOCC5)CC4)cc3c2C(C)C)cc1OC` [Example 223, 1-(4-(2-(3,4-dimethoxyphenyl)-3-isopropyl-1H-indol-5-yl)piperidin-1-yl)-2-morpholinoethan-1-one] were 48 nM and no less than 50000 nM.
Taken in the same sequence, the figures for `COc1ccc(-c2[nH]c3ccc(C4CCN(C(=O)CN5CCC[C@H](C(=O)N(C)C(C)C)C5)CC4)cc3c2C(C)C)cc1OC` [Example 288, (S)-1-(2-(4-(2-(3,4-dimethoxyphenyl)-3-isopropyl-1H-indol-5-yl)piperidin-1-yl)-2-oxoethyl)-N-isopropyl-N-methylpiperidine-3-carboxamide] were 44 nM and 633 nM.
Taken in the same sequence, the figures for `COc1ccc(-c2[nH]c3ccc(C4CCN(C(=O)CN5CCC[C@H](C(=O)NCC#N)C5)CC4)cc3c2C(C)C)cc1OC` [Example 297, (S)—N-(cyanomethyl)-1-(2-(4-(2-(3,4-dimethoxyphenyl)-3-isopropyl-1H-indol-5-yl)piperidin-1-yl)-2-oxoethyl)piperidine-3-carboxamide] were 48 nM and 3050 nM.
As to `COc1ccc(-c2[nH]c3ccc(C4CCN(CC(=O)NCCO)CC4)cc3c2C(C)C)cc1OC` [Example 276, 2-(4-(2-(3,4-dimethoxyphenyl)-3-isopropyl-1H-indol-5-yl)piperidin-1-yl)-N-(2-hydroxyethyl) acetamide], the IC50 in assay [1] worked out at 17 nM; in assay [2], 3580 nM.
For `COc1ccc(-c2[nH]c3ccc(C4CCN(CC(=O)N5CC[C@H](O)C5)CC4)cc3c2C(C)C)cc1OC` [Example 278, (S)-2-(4-(2-(3,4-dimethoxyphenyl)-3-isopropyl-1H-indol-5-yl)piperidin-1-yl)-1-(3-hydroxypyrrolidin-1-yl)ethan-1-one], in that order: 8 nM and 2870 nM.
Regarding `CCN(CC)C(=O)C1CCCN(CC(=O)N2CCC(c3ccc4[nH]c(-c5ccc(OC)c(OC)c5)c(C(C)C)c4c3)CC2)C1` (centres unmarked) [Example 224, 1-(2-(4-(2-(3,4-dimethoxyphenyl)-3-isopropyl-1H-indol-5-yl)piperidin-1-yl)-2-oxoethyl)-N,N-diethylpiperidine-3-carboxamide], the IC50 turned out to be 46 nM in assay [1] and 403 nM in assay [2].

Source of the values: patent publication US11180474B2 (BRISTOL-MYERS SQUIBB COMPANY, priority 2016, dated 2021).
